The source of these data is patent US5171741A, “Bacteriochlorophyll-a derivatives useful in photodynamic therapy” (Health Research, Inc., priority 1989, dated 1992).

The conditions of data set [1]: as compared to bacteriochlorophyll-a; Beems et al.; cited from earlier work.
Data set [2] is described as follows: Chemical and in vivo stability of bchla.
A further data set concerns skin of the foot. Description: Cutaneous photosensitivity of the foot of treated mice versus tumor response (therapeutic ratio). In kind it is in vivo. As to the method: One of the undesirable side effects of photodynamic therapy using certain compounds is cutaneous photosensitivity unrelated to the target biological substrate. Accordingly, the effect of the treatment on the photosensitivity of the foot of the treated mice was measured. The response of the foot was measured as erythema and/or edema (or loss of skin or further damage).

For data set [3] the following is noted: cited from earlier work.
The nature of data set [4]: Uptake, clearance and metabolism of bchla in tumor and liver (extraction, HPLC). Format: in vivo, DBA/2 Ha mice. Particulars: for concentration at 2 h: 2 h after injection; for concentration at 24 h: 24 h after injection. As to the method: Uptake and clearance of bchla in tumor and liver were measured by extraction of the tumor or liver tissue with 1:1MeOH:CH2 Cl2, followed by HPLC analysis.
bchla Uptake in DBA/2 Ha Mice in SMT-F Tumor

Another data set concerns SMT-F tumors. Description: Photodynamic treatment of SMT-F tumors in mice with bchla, tumor response. In kind it is in vivo, DBA2/HaD mice. Here is the method: DBA2/HaD mice were transplanted with SMT-F tumors. When the subcutaneous tumors reached 4.5-5.5 mm in diameter, the mice, in groups of five, were injected intravenously with the bchla solution of Example 1 in doses of 5-30 mg/kg. At a time 1 hour-5 days later, the tumor, previously shaved and depiliated, plus a margin of 2-3 mm was exposed to radiation of a wavelength in the range 630-800 nm using a Spectraphysics argon dye laser with Exciton LDS751 dye, tunable over the 700-800 nm range or a diode laser--e. g., Spectra Diode emitting in the 750-850 nm range or a Xenon arc lamp filtered with an interference filter to pass 90% of the 700 nm light ±60 nm at dose rates of 75-150 mW/cm^2. When the Xenon system was used, mild hyperthermia resulted (42° C. at 160 mW/cm^2). It is not known whether this temperature rise acts synergistically with bchla as has been shown with HpD and its active fraction.
Tumor response is shown in the table of FIG. 1 for the seventh day after light treatment which indicates regression, and at a time point at least 30 days after light treatment, which would indicate cure, if there had been no regrowth.
As shown in FIG. 1 good response to bchla was obtained, for example, after 2 hours at 5 mg/kg in the 670-790 nm range and after 24 hours after injection with 10 mg/kg and irradiated at 680-780 nm. […]

Each structure is given as a SMILES string. Read-outs that look alike come from different tables or passages of the source. Bounds are passed on as bounds.

On to `CCC1C2=NC(=Cc3c(C(C)=O)c(C)c4[n]3[Mg][n]3c(c(C)c(C(=O)O)c3=C(CC(=O)O)C3=NC(=C4)C(C)C3CCC(=O)O)=C2)C1C` (stereo not shown) [bacteriochloro-phyllin-a], for which the Water solubility entry in data set [1] was “enhanced water solubility”.
Take `CCC1C2=NC(=Cc3c(C(C)=O)c(C)c4[n]3[Mg][n]3c(c(C)c5c3=C(C3=NC(=C4)C(C)C3CCC(=O)OCC=C(C)CCCC(C)CCCC(C)CCCC(C)C)C(C(=O)OC)C5=O)=C2)C1C` (stereo not shown) [bchla, Bacteriochlorophyll-a]: the Stability in vivo entry in data set [2] is on record as “sufficiently stable in vivo”. The “Expected persistence of sensitivity to light” value with skin of the foot (expected from the mouse foot response) is “only a few days”. Besides, the “Sensitivity of the tumor and the skin of the foot as a function of time” value with skin of the foot (mice, FIG. 3) is on record as “declined concomitantly”. In addition, the “Stability towards loss of magnesium ion” value in data set [3] (dilute acid) is on record as “readily removed”. Moreover, the Stability towards oxidation result in data set [3] (especially in the presence of light) is listed as “readily oxidized”. For the same molecule, the “Levels in tumor and liver maintained” value in data set [4] (24 or 48 hours) is reported as “maintained for as long as 24 or 48 hours”. For the same molecule, the “Levels in tumor and liver” value in data set [4] (after 2 hours) is “high levels”. The “Composition of material in tumor” value in data set [4] (at 24 hours) was “demetallized but still contains phytyl”; in data set [4] (at 48 hours), “mainly material without phytyl and without Mg”; in data set [4] (two hours after injection), “essentially only bchla with a small amount of material wherein the phytyl group has hydrolyzed”. Besides, the “Time of partial conversion to bacteriopheophytin” value in data set [4] (liver) was 2 h; in data set [4] (tumor), not below 24 h. In addition, the concentration at 2 h worked out at 44000 ng/g in data set [4] (mouse, liver, 10 mg/kg, read-out: Tissue Level, Liver); 6140 ng/g in data set [4] (mouse, tumor, 10 mg/kg, read-out: Tissue Level, Tumor); 16000 ng/g in data set [4] (mouse, tumor, 20 mg/kg, read-out: Tissue Level, Tumor). The concentration at 24 h was 49400 ng/g in data set [4] (mouse, liver, 10 mg/kg, uncertain (*), conversion to other components, read-out: Tissue Level, Liver) and 10000 to 19700 ng/g in data set [4] (mouse, tumor, 20 mg/kg, uncertain (*), conversion to other components, read-out: Tissue Level, Tumor). Moreover, the concentration at 48 h in data set [4] (mouse, tumor, 10 mg/kg, 48 h after injection, uncertain (*), conversion to other components, read-out: Tissue Level, Tumor) was 10700 ng/g. For the same molecule, the Tumor response result is on record as “good response” in the data set on SMT-F tumors (5 mg/kg i.v., 2 hours after injection, 670-790 nm range) and “good response” in the data set with SMT-F tumors (10 mg/kg i.v., 24 hours after injection, irradiated at 680-780 nm).
`CCC1c2cc3[nH]c(c(CC(=O)O)c4nc(cc5[nH]c(cc(n2)C1C)c(C(C)=O)c5C)C(C)C4CCC(=O)O)c(C(=O)O)c3C` (stereo not shown) [bacteriochlorin-a]: in data set [1], the Water solubility entry is “enhanced water solubility”.
